Test [1] concerns GPx-1. As to the kind of experiment: GPx-1 enzyme activity suppression in buffer. To be noted: buffer, Au dose of 400 μM, 10 min, GPx Activity Colorimetric Assay Kit, NADPH absorbance at 340 nm. The class given is biochemical, bovine. From the text: The peptides (N2H-CCYGGPEEEEEVG-COOH (named P1), NH2-CCYGGPDDDEDVG-COOH (named P2) and NH2-CCYGGPEEVEEVG-COOH (named P3)) were chemically synthesized by a solid phase method (China Peptides Co. Ltd, Purity: 98%). Hydrogen tetrachloroaurate (III) (HAuCl4·4H2O) was purchased from Sinopharm Chemical Reagent Co. Ltd. Sodium hydroxide (NaOH), nitric acid (HNO3), hydrochloric acid (HCl) and hydrogen peroxide (H2O2) were purchased from Beijing Chemical Reagent Co., China. Human non-small cell lung carcinoma cells (A549 cells), Henrietta Lacks strain of cancer cells (Hela cells) and human colon adenocarcinoma cells (HCT-8 cells) were from Cancer Institute and Hospital, Chinese Academy of Medical Sciences. Fetal bovine serum (FBS) and trypsin-EDTA were obtained from Gibco, USA. Penicillin-streptomycin solution, cell culture medium DMEM and RPMI 1640 were purchased from Hyclone. Hoechst 33342, LysoTracker®Green DND-26, and CM-H2DCFDA were from Molecular Probes, USA. NucView™ 488 Caspase-3 Assay Kit was bought from Biotium, USA. 5,5′,6,6′-tetrachloro-1,1′,3,3′-tetraethylbenzimidazolocarbocyanine iodide (JC-1), cell lysis buffer for Western and IP, phenylmethanesulfonyl fluoride (PMSF) and BCA Protein Assay Kit were obtained from Beyotime Institute of Biotechnology, China. Protease inhibitor cocktail tablets were from Roche Diagnostics, GmbH, Mannheim, Germany. Cell counting kit-8 (CCK-8) reagents and Annexin V-FITC/Propidium (PI) Apoptosis Detection Kit were purchased from Dojindo Laboratories, Japan. GPx from bovine erythrocytes […] was provided by Sigma Aldrich, USA. GPx Activity Colorimetric Assay Kit was provided by Biovision, USA. Anti-GPx-1 antibody was offered by Abcam, UK. PARP antibody, caspase-3 antibody and β-actin antibody were offered by Cell Signaling Technology, USA. Amicon ultra centrifugal filter devices (Merck Millipore, MWCO: 10 kDa) were used for purification steps. Ultrapure Millipore (Mini-Q) water (18.2 MΩ) was used throughout the experiments. […]
Pure GPx (lyophilized powder, ≥300 units/mg protein) were diluted by GPx sample buffer and incubated with peptide-Au clusters (Au25P1_9, Au25P2_9 and Au25P3_9) at a series of Au dose (0, 25, 100, 400 μM) for 10 min, respectively. […] The GPx activity of untreated samples was set as 100%, and that of peptide-Au clusters treated samples were expressed as a relative percentage of untreated ones.
Figure S12. Peptide-Au clusters treated GPx-1 activity measured in buffer solution. The decrease in NADPH absorbance measured at 340 nm during the oxidation of NADPH to NADP is the indicative of GPx activity,^1, 2 which is in a dose dependent manner in tube experiments when treated with serial doses of peptide-Au clusters.

In another test the test system is A549 cells. As to the kind of experiment: Cell viability assay (CCK-8), A549. The class given is cell-based, human. The following applies: A549, Au dose of 800 μM, 48 h, CCK-8; mean from three independent experiments. How it is done: Briefly, cells were prior cultured on 96-well plates (at the density of 5 × 10^3 cells/well) for 24 h to allow cells attachment. The cells were treated with different doses of these free peptides (0, 1, 4, 16, 64, 256, 1024 µM) and peptide-Au clusters (0, 50, 100, 200, 400, 800 µM in Au dose) for 48 h, respectively. The cells were washed three times with PBS and then incubated with fresh growth medium containing 10% (v/v) CCK-8 reagent for 1 h at 37 °C for cell viability assay. The absorbance was measured at 450 nm by using a microplate reader (SpectraMAX M2, Sunnyvale, California). Cell viability of untreated cells was set as 100%, and that of treated cells were expressed as a relative percentage of untreated cells. All data were shown as mean percentages ± standard deviation from three independent experiments.

Test [2] concerns GPx-1. To be noted: through interacting with selenocystein by forming a stable gold-Sec complex; cited from earlier work. The text has this:
Glutathione peroxidase-1 (GPx-1), a crucial antioxidant selenoenzyme in mammalian cells, is selected as a model drug target for tumor treatment. Suppression of intracellular GPx-1 activity induces the accumulation of hydrogen peroxide (reactive oxygen species, ROS), which would render tumor cells susceptible to ROS-induced apoptosis, [20].

“CCYGGPDDDEDVG [Au25P2_9, Au25 cluster coated by nine P2 peptides (…)]”: the “GPx-1 activity (relative to untreated = 100%)” value with GPx-1 [1] was 16%. The “cell viability (relative to untreated = 100%)” value with A549 cells turned out to be 53%.

For `CC(=O)OC[C@H]1O[C@@H]([S-])[C@H](OC(C)=O)[C@@H](OC(C)=O)[C@@H]1OC(C)=O.CCP(CC)CC.[Au+]` [auranofin], the “inhibition of GPx-1 activity” value in the test on GPx-1 [2] is given as “can inhibit GPx-1 activity”.

Regarding “CCYGGPEEVEEVG [Au25P3_9, Au25 cluster coated by nine P3 peptides (…)]”, the “GPx-1 activity (relative to untreated = 100%)” value in the test with GPx-1 [1] stood at 29%. Besides, the “cell viability (relative to untreated = 100%)” value in the test on A549 cells was 71%.

`O=C(O)CC([S-])C(=O)O.[Au+]` (stereo not drawn) [gold thiomalate]: the “inhibition of GPx-1 activity” value with GPx-1 [2] was “can inhibit GPx-1 activity”.

(Values after publication PMC5428013, “Peptide-Au Clusters Induced Tumor Cells Apoptosis via Targeting Glutathione Peroxidase-1: The Molecular Dynamics Assisted Experimental Studies” (Scientific Reports, 2017).)
